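These data come from cells grown in 96-well plates and exposed to compound for 48 hours at five concentrations. GI50: concentration for 50% inhibition of growth.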 Active and inactive are the calls of the source. Cut-off read from the data, not from the text of the source: active = GI50 up to about 1.1 µM and inactive = higher.
Legend:
Experiment in all cases: NCI tumour cell line growth inhibition, 48 h
[1] = system: 786-0
[2] = system: A498
[3] = system: A549
[4] = system: ACHN
[5] = system: BT-549
[6] = system: CAKI-1
[7] = system: CCRF-CEM
[8] = system: COLO 205
[9] = system: DU-145
[10] = system: EKVX
[11] = system: HCC 2998
[12] = system: HCT-116
[13] = system: HCT-15
[14] = system: HOP-62
[15] = system: HT-29
[16] = system: IGROV-1
[17] = system: K562
[18] = system: KM12
[19] = system: LOX IMVI
[20] = system: M14
[21] = system: MCF7
[22] = system: MDA-MB-231
[23] = system: MDA-MB-435
[24] = system: MDA-N
[25] = system: MOLT-4
[26] = system: Malme-3M
[27] = system: NCI-H226
[28] = system: NCI-H23
[29] = system: NCI-H460
[30] = system: NCI-H522
[31] = system: NCI/ADR-RES
[32] = system: OVCAR-3
[33] = system: OVCAR-4
[34] = system: OVCAR-5
[35] = system: OVCAR-8
[36] = system: PC-3
[37] = system: RPMI-8226
[38] = system: RXF 393
[39] = system: SF-268
[40] = system: SF-295
[41] = system: SF-539
[42] = system: SK-MEL-28
[43] = system: SK-MEL-2
[44] = system: SK-MEL-5
[45] = system: SK-OV-3
[46] = system: SN12C
[47] = system: SNB-19
[48] = system: SNB-75
[49] = system: SR
[50] = system: SW-620
[51] = system: TK-10
[52] = system: U-251
[53] = system: UACC-257
[54] = system: UACC-62
[55] = system: UO-31

COC(=O)C1=C(C(=O)OC)C2CCC1CC2=O (stereo not given)
GI50 [1]: > 100 µM (inactive) | GI50 [2]: > 100 µM (inactive) | GI50 [3]: > 100 µM (inactive) | GI50 [4]: > 100 µM (inactive) | GI50 [5]: > 100 µM (inactive) | GI50 [6]: > 100 µM (inactive) | GI50 [7]: 31.3 µM (inactive) | GI50 [8]: 50.9 µM (inactive) | GI50 [9]: > 100 µM (inactive) | GI50 [10]: > 100 µM (inactive) | GI50 [11]: > 100 µM (inactive) | GI50 [12]: > 100 µM (inactive) | GI50 [13]: 83.8 µM | GI50 [14]: > 100 µM (inactive) | GI50 [15]: > 100 µM (inactive) | GI50 [16]: > 100 µM (inactive) | GI50 [17]: 49 µM (inactive) | GI50 [18]: 65.6 µM (inactive) | GI50 [19]: > 100 µM (inactive) | GI50 [20]: > 100 µM (inactive) | GI50 [21]: > 100 µM (inactive) | GI50 [22]: > 100 µM (inactive) | GI50 [23]: > 100 µM (inactive) | GI50 [24]: > 100 µM (inactive) | GI50 [25]: 45.5 µM (inactive) | GI50 [26]: > 100 µM (inactive) | GI50 [27]: > 100 µM (inactive) | GI50 [28]: > 100 µM (inactive) | GI50 [29]: > 100 µM (inactive) | GI50 [30]: 70.6 µM (inactive) | GI50 [31]: > 100 µM (inactive) | GI50 [32]: > 100 µM (inactive) | GI50 [33]: > 100 µM (inactive) | GI50 [34]: > 100 µM (inactive) | GI50 [35]: > 100 µM (inactive) | GI50 [36]: > 100 µM (inactive) | GI50 [37]: > 100 µM (inactive) | GI50 [38]: > 100 µM (inactive) | GI50 [39]: > 100 µM (inactive) | GI50 [40]: > 100 µM (inactive) | GI50 [41]: > 100 µM (inactive) | GI50 [42]: > 100 µM (inactive) | GI50 [43]: > 100 µM (inactive) | GI50 [44]: > 100 µM (inactive) | GI50 [45]: > 100 µM (inactive) | GI50 [46]: > 100 µM (inactive) | GI50 [47]: > 100 µM (inactive) | GI50 [48]: > 100 µM (inactive) | GI50 [49]: 61.2 µM (inactive) | GI50 [50]: 89.9 µM (inactive) | GI50 [51]: > 100 µM (inactive) | GI50 [52]: > 100 µM (inactive) | GI50 [53]: > 100 µM (inactive) | GI50 [54]: > 100 µM (inactive) | GI50 [55]: 55.1 µM (inactive)

Source: ChEMBL document CHEMBL1201862, “PubChem BioAssay data set” (2004)
